Where two headings read alike, the source gives them in different places.

Data set [1] addresses T1, recombinant full-length WRN protein (1-1432) (Homo sapiens, UniProt Q14191).
T1 construct: recombinant full-length WRN protein (1-1432)
Nature of the data set: WRN unwinding activity, fluorogenic 384-well assay (Example A). It counts as biochemical. The following applies: WRN unwinding activity, 4 hr; Table 2; read-out: 4 hr UNW pIC50 (converted). Put shortly: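 Read-out is end-point unwinding of a fluorophore/quencher duplex (ex 525, em 598 nm) after 60 min with 200 μM ATP and 12 nM DNA (2× stocks), EDTA stop. Compound first sat 4 h with 200 pM WRN (2× stock) in pH 8.0 Tris buffer; four-parameter fit gives pIC50.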

A short description of data set [2]: Cell culture media unbound percentage and stability by rapid equilibrium dialysis (Example C). It counts as in vitro ADME. The following applies: bovine, cell assay medium (RPMI-1640 with 10% fetal bovine serum), pH 7.4, rapid equilibrium dialysis, 4 hours at 37° C., read-out: Cell Culture Media Binding (% unbound). The method, boiled down:
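Percent unbound in cell assay medium came from the LC-MS/MS receiver:donor peak area ratio, with stability taken as the 240 min over 0 min ratio. Set-up: 1 μM nominal compound in medium dialysed against pH 7.4 PBS (100 mM phosphate, 150 mM NaCl), 4 h, 37° C, shaken, in triplicate.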

Data set [3] has as its system SW48 human colorectal cancer cells. Nature of the data set: Calculated free drug potency in SW48 cell assay, corrected with media free fraction (Example C). It counts as cell-based. The following applies: Homo sapiens, SW48, SW48 pCC50 corrected with measured free fraction in cell assay media. The method, boiled down: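 Free drug potency derives from correcting SW48 assay concentrations with the unbound fraction in medium. That fraction came from RED against pH 7.4 PBS, 1 μM nominal compound, 4 h at 37 °C, quantified by LC-MS/MS peak area ratios at T=240 versus T=0 min.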

For data set [4], the system named is SW48 human colorectal cancer cells (MSI-H cancer cells). Nature of the data set: SW48 cell viability, CellTiter-Glo, 120 hours (Example B). The following applies: Homo sapiens. Background: ATP-based viability assays read luminescence as a measure of living cells.
The mark [5] stands for this setting: SW48, 120 h, read-out: SW48 pCC50, SW48 cell viability, 120 hours incubation (converted), Table 2.
Setting [6] is: SW48, read-out: SW48 pCC50, measured potency from Example B, as repeated in Table 3 (converted).

T1 sequence (Q14191 whole entry): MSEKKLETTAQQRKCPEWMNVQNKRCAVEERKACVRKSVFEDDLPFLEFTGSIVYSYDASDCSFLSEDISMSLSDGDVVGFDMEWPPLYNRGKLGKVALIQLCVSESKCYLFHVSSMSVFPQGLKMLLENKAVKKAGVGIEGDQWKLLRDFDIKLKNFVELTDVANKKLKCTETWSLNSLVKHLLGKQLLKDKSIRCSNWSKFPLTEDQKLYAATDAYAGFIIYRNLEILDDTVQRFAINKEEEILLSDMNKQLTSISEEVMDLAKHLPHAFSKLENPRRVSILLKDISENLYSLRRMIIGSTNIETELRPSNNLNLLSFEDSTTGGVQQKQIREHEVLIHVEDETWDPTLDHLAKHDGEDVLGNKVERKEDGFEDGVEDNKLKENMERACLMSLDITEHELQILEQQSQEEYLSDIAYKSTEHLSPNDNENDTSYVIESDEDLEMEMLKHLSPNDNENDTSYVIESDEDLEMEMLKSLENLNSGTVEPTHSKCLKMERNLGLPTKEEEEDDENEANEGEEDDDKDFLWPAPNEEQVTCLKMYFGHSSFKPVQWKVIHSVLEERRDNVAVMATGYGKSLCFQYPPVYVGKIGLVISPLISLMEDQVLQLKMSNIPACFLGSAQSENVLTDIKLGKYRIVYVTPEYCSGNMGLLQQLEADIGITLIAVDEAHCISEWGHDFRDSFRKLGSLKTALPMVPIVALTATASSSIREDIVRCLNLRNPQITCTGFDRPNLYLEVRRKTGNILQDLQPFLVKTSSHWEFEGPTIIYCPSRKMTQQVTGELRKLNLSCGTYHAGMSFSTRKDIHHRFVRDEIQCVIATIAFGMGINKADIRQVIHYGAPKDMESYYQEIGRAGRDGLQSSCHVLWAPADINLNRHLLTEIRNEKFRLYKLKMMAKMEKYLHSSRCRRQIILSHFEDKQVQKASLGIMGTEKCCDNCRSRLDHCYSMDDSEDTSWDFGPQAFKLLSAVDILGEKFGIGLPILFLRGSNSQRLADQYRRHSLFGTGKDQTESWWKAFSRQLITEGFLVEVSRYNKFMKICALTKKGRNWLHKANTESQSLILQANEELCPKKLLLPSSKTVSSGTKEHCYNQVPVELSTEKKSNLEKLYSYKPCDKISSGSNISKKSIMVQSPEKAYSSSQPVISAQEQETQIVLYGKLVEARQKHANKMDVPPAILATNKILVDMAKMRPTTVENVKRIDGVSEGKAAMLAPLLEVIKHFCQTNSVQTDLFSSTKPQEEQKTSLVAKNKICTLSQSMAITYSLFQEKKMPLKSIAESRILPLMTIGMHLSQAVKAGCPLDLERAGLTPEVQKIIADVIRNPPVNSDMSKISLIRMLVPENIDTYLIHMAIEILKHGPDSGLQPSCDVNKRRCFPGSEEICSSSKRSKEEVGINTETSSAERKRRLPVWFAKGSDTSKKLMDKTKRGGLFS

Take `Cc1nc2cc(S(=O)(=O)N(C)c3ccc([C@H]4CCC[C@@H](C(=O)Nc5ccc(C(F)(F)F)cc5F)[C@@H]4C(=O)O)cc3)ncc2n1C` [Example 125, (1R,2R,6S)-2-((2-fluoro-4-(trifluoromethyl)phenyl)carbamoyl)-6-(4-((N,2,3-trimethyl-3H-imidazo[4,5-c]pyridine)-6-sulfonamido)phenyl)cyclohexane-1-carboxylic acid]: the IC50 in data set [1] is 0.002 µM. Moreover, the fraction unbound at 4 h, 1 µM in data set [2] turned out to be 0.0433. The CC50 in data set [3] is 0.0692 µM; in data set [4] (setting [5]) it was 1.58 µM; in data set [4] (setting [6]), 1.58 µM.
In the case of `Cc1nc2cc(S(=O)(=O)N(C)c3ccc([C@H]4CCC[C@@H](C(=O)Nc5ccc(C(F)(F)F)cc5F)[C@@H]4C(=O)O)cc3)cc(F)c2n1C` [Example 126, (1R,2R,6S)-2-((2-fluoro-4-(trifluoromethyl)phenyl)carbamoyl)-6-(4-((7-fluoro-N, 1,2-trimethyl-1H-benzo[d]imidazole)-5-sulfonamido)phenyl)cyclohexane-1-carboxylic acid], in data set [1], the IC50 is 0.00631 µM. Moreover, the fraction unbound at 4 h, 1 µM in data set [2] came to 0.058. Moreover, the CC50 in data set [3] was 0.0363 µM; in data set [4] (setting [5]), 0.631 µM; in data set [4] (setting [6]) it was 0.631 µM.
As for `Cc1nc2cc(S(=O)(=O)N(C)c3ccc([C@H]4CCC[C@@H](C(=O)Nc5ccc(C(F)(F)F)cc5F)[C@@H]4C(=O)O)cc3)c(F)cc2n1C` [Example 127, (1R,2R,6S)-2-((2-fluoro-4-(trifluoromethyl)phenyl)carbamoyl)-6-(4-((6-fluoro-N,1,2-trimethyl-1H-benzo[d]imidazole)-5-sulfonamido)phenyl)cyclohexane-1-carboxylic acid], the IC50 in data set [1] is 0.00398 µM. In addition, the fraction unbound at 4 h, 1 µM in data set [2] came to 0.0443. The CC50 in data set [3] was 0.0447 µM; in data set [4] (setting [5]), 1 µM; in data set [4] (setting [6]) it was 1 µM.
For `Cc1nc2c(F)c(S(=O)(=O)N(C)c3ccc([C@H]4CCC[C@@H](C(=O)Nc5ccc(C(F)(F)F)cc5F)[C@@H]4C(=O)O)cc3)ccc2n1C` [Example 128, (1R,2R,6S)-2-((2-fluoro-4-(trifluoromethyl)phenyl)carbamoyl)-6-(4-((4-fluoro-N,1,2-trimethyl-1H-benzo[d]imidazole)-5-sulfonamido)phenyl)cyclohexane-1-carboxylic acid], the IC50 in data set [1] was 0.00398 µM. In addition, the fraction unbound at 4 h, 1 µM in data set [2] amounted to 0.0452. In addition, the CC50 was 0.0457 µM in data set [3], 1 µM in data set [4] (setting [5]) and 1 µM in data set [4] (setting [6]).
As to `Cc1nc2cc(S(=O)(=O)N(C)c3ccc([C@H]4CCC[C@@H](C(=O)Nc5ccc(C(F)(F)F)cc5F)[C@@H]4C(=O)O)cc3)cc(Cl)c2n1C` [Example 129, (1R,2S,6R)-2-(4-((7-chloro-N,1,2-trimethyl-1H-benzo[d]imidazole)-5-sulfonamido)phenyl)-6-((2-fluoro-4-(trifluoromethyl)phenyl)carbamoyl)cyclohexane-1-carboxylic acid], the IC50 in data set [1] was 0.02 µM. Further, the fraction unbound at 4 h, 1 µM in data set [2] was determined as 0.0143. The CC50 in data set [3] is 0.00912 µM; in data set [4] (setting [5]), 0.631 µM; in data set [4] (setting [6]), 0.631 µM.
Turning to `CN(c1ccc([C@H]2CCC[C@@H](C(=O)Nc3ccc(C(F)(F)F)cc3F)[C@@H]2C(=O)O)cc1)S(=O)(=O)c1ccc2c(c1)nc(C1CC1)n2C` [Example 130, (1R,2S,6R)-2-(4-((2-cyclopropyl-N,1-dimethyl-1H-benzo[d]imidazole)-5-sulfonamido)phenyl)-6-((2-fluoro-4-(trifluoromethyl)phenyl)carbamoyl)cyclohexane-1-carboxylic acid], in data set [1], the IC50 is 0.00631 µM. Moreover, the fraction unbound at 4 h, 1 µM in data set [2] turned out to be 0.0326. The results for the CC50 in data set [3], in data set [4] (setting [5]) and in data set [4] (setting [6]) were 0.0162 µM, 0.501 µM and 0.501 µM, respectively.
On to `CC(C)c1nc2cc(S(=O)(=O)N(C)c3ccc([C@H]4CCC[C@@H](C(=O)Nc5ccc(C(F)(F)F)cc5F)[C@@H]4C(=O)O)cc3)ccc2n1C` [Example 132, (1R,2R,6S)-2-((2-fluoro-4-(trifluoromethyl)phenyl)carbamoyl)-6-(4-((2-isopropyl-N, 1-dimethyl-1H-benzo[d]imidazole)-5-sulfonamido)phenyl)cyclohexane-1-carboxylic acid], for which the IC50 in data set [1] is 0.0126 µM. The fraction unbound at 4 h, 1 µM in data set [2] was 0.0349. The CC50 was 0.0219 µM in data set [3], 0.631 µM in data set [4] (setting [5]) and 0.631 µM in data set [4] (setting [6]).
Regarding `CCO[C@@H]1C[C@H](c2ccc(N(C)S(=O)(=O)c3ccc4c(c3)nc(N(C)C)n4C)cc2)[C@@H](C(=O)O)[C@H](C(=O)Nc2ccc(C(F)(F)F)cc2F)C1` [Example 139, (1R,2S,4R,6R)-2-(4-((2-(dimethylamino)-N,1-dimethyl-1H-benzo[d]imidazole)-5-sulfonamido)phenyl)-4-ethoxy-6-((2-fluoro-4-(trifluoromethyl)phenyl)carbamoyl)cyclohexane-1-carboxylic acid], in data set [1], the IC50 is 0.00158 µM. Further, the fraction unbound at 4 h, 1 µM in data set [2] amounted to 0.0518. In addition, the CC50 was 0.00513 µM in data set [3], 0.1 µM in data set [4] (setting [5]) and 0.1 µM in data set [4] (setting [6]).
Consider `CCO[C@@H]1C[C@H](c2ccc(N(C)S(=O)(=O)c3ccc4c(c3)ncn4C)cc2)[C@@H](C(=O)O)[C@H](C(=O)Nc2ccc(C(F)(F)F)cc2F)C1` [Example 140, (1R,2S,4R,6R)-2-(4-((N,1-dimethyl-1H-benzo[d]imidazole)-5-sulfonamido)phenyl)-4-ethoxy-6-((2-fluoro-4-(trifluoromethyl)phenyl)carbamoyl)cyclohexane-1-carboxylic acid], for which the IC50 in data set [1] is 0.00251 µM. In addition, the fraction unbound at 4 h, 1 µM in data set [2] came out at 0.101. Further, the values for the CC50 in data set [3], in data set [4] (setting [5]) and in data set [4] (setting [6]) were 0.0158 µM, 0.158 µM and 0.158 µM, respectively.
Turning to `CCO[C@@H]1C[C@H](c2ccc(N(C)S(=O)(=O)c3cnc4c(c3)nc(C)n4C)cc2)[C@@H](C(=O)O)[C@H](C(=O)Nc2ccc(C(F)(F)F)cc2F)C1` [Example 141, (1R,2R,4R,6S)-4-ethoxy-2-((2-fluoro-4-(trifluoromethyl)phenyl)carbamoyl)-6-(4-((N,2,3-trimethyl-3H-imidazo[4,5-b]pyridine)-6-sulfonamido)phenyl)cyclohexane-1-carboxylic acid], in data set [1], the IC50 was 0.00316 µM. Moreover, the fraction unbound at 4 h, 1 µM in data set [2] stood at 0.112. The CC50 is 0.0708 µM in data set [3], 0.631 µM in data set [4] (setting [5]) and 0.631 µM in data set [4] (setting [6]).
For `Cc1nc2cc(S(=O)(=O)N(C)c3ccc([C@H]4CCC[C@@H](C(=O)Nc5ccc(C(F)(F)F)nc5)[C@@H]4C(=O)O)cc3)ccc2n1C` [Example 172, (1R,2R,6S)-2-((6-(trifluoromethyl)pyridin-3-yl)carbamoyl)-6-(4-((N,1,2-trimethyl-1H-benzo[d]imidazole)-5-sulfonamido)phenyl)cyclohexane-1-carboxylic acid], the IC50 in data set [1] is 0.00398 µM. For the same compound, the fraction unbound at 4 h, 1 µM in data set [2] was determined as 0.176. In addition, the CC50 in data set [3] is 0.219 µM; in data set [4] (setting [5]), 1.26 µM; in data set [4] (setting [6]), 1.26 µM.
On to `Cc1nc2cc(S(=O)(=O)N(C)c3ccc([C@H]4CCC[C@@H](C(=O)Nc5ccc(C(F)(F)F)cc5)[C@@H]4C(=O)O)cc3)ccc2n1C` [Example 173, (1R,2R,6S)-2-((4-(trifluoromethyl)phenyl)carbamoyl)-6-(4-((N,1,2-trimethyl-1H-benzo[d]imidazole)-5-sulfonamido)phenyl)cyclohexane-1-carboxylic acid], for which the IC50 in data set [1] is 0.00501 µM. The fraction unbound at 4 h, 1 µM in data set [2] worked out at 0.0163. In addition, the results for the CC50 in data set [3], in data set [4] (setting [5]) and in data set [4] (setting [6]) were 0.0102 µM, 0.631 µM and 0.631 µM, respectively.
Regarding `Cc1nc2cc(S(=O)(=O)N(C)c3ccc([C@H]4CCC[C@@H](C(=O)N[C@H]5CC[C@H](C(F)(F)F)CC5)[C@@H]4C(=O)O)cc3)ccc2n1C` [Example 177, (1R,2R,6S)-2-(((1r,4R)-4-(trifluoromethyl)cyclohexyl)carbamoyl)-6-(4-((N,1,2-trimethyl-1H-benzo[d]imidazole)-5-sulfonamido)phenyl)cyclohexane-1-carboxylic acid], the IC50 in data set [1] is 0.00158 µM. Besides, the fraction unbound at 4 h, 1 µM in data set [2] came to 0.237. Besides, the results for the CC50 in data set [3], in data set [4] (setting [5]) and in data set [4] (setting [6]) were 0.372 µM, 1.58 µM and 1.58 µM, respectively.
With `Cc1nc2cc(S(=O)(=O)N(C)c3ccc([C@H]4CCC[C@@H](C(=O)Nc5ccc(C(F)F)cc5F)[C@@H]4C(=O)O)cc3)ccc2n1C` [Example 179, (1R,2R,6S)-2-((4-(difluoromethyl)-2-fluorophenyl)carbamoyl)-6-(4-((N,1,2-trimethyl-1H-benzo[d]imidazole)-5-sulfonamido)phenyl)cyclohexane-1-carboxylic acid], the IC50 in data set [1] was 0.00251 µM. In data set [2], the fraction unbound at 4 h, 1 µM was 0.146. Besides, the CC50 was 0.145 µM in data set [3], 1 µM in data set [4] (setting [5]) and 1 µM in data set [4] (setting [6]).

The record behind these values is patent publication US12662451B2, “Chemical compounds and uses thereof” (GLAXOSMITHKLINE INTELLECTUAL PROPERTY (NO.4) LIMITED, priority 2023, dated 2026).
